The record followed here is ChEMBL document CHEMBL1208738, “Optimization of privileged structures for selective and potent melanocortin subtype-4 receptor ligands” (Bioorg Med Chem Lett, 2010).

pEC50, pIC50: −log10 of the molar value.

The target in assay [1] is T1, Melanocortin receptor 4 (Homo sapiens, UniProt P32245). Nature of the assay: Displacement of [125I]NDP-alpha-MSH from human MC4 receptor expressed in CHO cells. In kind it is cell-based.
Assay [2] addresses T1, Melanocortin receptor 4. The assay is described as follows: Agonist activity at human MC4 receptor expressed in CHO cells assessed as increase of alpha-MSH-induced cAMP accumulation. In kind it is functional, cell-based.
Assay [3] has as its target T1, Melanocortin receptor 4. The assay is described as follows: Agonist activity at human MC4 receptor expressed in CHO cells assessed as increase of alpha-MSH-induced cAMP accumulation at 10 uM relative to alpha-MSH. Format: functional, cell-based.
The next assay addresses Melanocortin receptor 3 (Homo sapiens, UniProt P41968). Nature of the assay: Agonist activity at human MC3 receptor expressed in CHO cells assessed as increase of alpha-MSH-induced cAMP accumulation at 10 uM relative to alpha-MSH. Format: functional, cell-based.
In another assay the target is Melanocortin receptor 5 (Homo sapiens, UniProt P33032). The assay is described as follows: Agonist activity at human MC5 receptor expressed in CHO cells assessed as increase of alpha-MSH-induced cAMP accumulation at 10 uM relative to alpha-MSH. In kind it is functional, cell-based.
Assay [4] deals with Melanocyte-stimulating hormone receptor (Homo sapiens, UniProt Q01726). The assay is described as follows: Agonist activity at human MC1 receptor expressed in CHO cells assessed as increase of alpha-MSH-induced cAMP accumulation at 10 uM relative to alpha-MSH. In kind it is functional, cell-based.
Melanocyte-stimulating hormone receptor, sequence (Q01726 whole entry, looked up): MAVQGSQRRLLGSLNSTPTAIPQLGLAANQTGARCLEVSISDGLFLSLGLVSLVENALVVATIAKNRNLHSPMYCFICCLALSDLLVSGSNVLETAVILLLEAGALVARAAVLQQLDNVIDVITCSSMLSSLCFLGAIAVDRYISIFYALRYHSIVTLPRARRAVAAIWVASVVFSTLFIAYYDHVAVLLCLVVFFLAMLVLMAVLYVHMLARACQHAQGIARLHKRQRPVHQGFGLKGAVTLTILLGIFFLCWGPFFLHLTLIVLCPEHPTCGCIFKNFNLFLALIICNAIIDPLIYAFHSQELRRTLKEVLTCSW

T1 sequence (P32245 whole entry): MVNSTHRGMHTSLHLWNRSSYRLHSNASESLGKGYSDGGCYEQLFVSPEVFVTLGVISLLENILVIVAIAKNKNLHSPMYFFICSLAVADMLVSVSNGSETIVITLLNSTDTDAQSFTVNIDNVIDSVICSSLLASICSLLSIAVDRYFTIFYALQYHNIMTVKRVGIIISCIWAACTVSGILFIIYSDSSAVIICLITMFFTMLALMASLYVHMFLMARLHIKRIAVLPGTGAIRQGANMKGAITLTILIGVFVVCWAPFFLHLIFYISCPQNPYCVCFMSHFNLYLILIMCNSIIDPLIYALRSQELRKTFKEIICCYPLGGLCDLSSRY
Melanocortin receptor 5, sequence (P33032 whole entry): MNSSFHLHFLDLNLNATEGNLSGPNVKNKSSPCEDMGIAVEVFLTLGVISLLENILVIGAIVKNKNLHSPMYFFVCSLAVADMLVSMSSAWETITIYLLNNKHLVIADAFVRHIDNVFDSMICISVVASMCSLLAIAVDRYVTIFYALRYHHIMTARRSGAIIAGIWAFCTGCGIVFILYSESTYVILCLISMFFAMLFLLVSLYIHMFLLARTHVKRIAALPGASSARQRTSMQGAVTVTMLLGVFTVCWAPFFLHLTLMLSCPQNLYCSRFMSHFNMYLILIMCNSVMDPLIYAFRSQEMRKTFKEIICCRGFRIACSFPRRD
Melanocortin receptor 3, sequence (P41968 whole entry): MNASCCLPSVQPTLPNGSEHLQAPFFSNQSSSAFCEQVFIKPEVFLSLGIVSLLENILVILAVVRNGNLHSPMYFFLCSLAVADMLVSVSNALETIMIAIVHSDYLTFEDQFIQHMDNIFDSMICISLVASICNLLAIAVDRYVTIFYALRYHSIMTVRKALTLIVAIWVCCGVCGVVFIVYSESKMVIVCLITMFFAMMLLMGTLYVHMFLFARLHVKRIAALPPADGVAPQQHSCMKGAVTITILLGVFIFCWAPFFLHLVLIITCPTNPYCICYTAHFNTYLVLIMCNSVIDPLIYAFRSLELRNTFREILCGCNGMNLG

`CC(C)NCC(C1CCCCC1)N1CCN(C(=O)[C@@H]2CN(C(C)(C)C)C[C@H]2c2ccc(F)cc2F)CC1` (some centres not stated) gave a pIC50 at Melanocortin receptor 4 [1] of 6.51. In addition, the negative logarithm of the EC50 (pEC50) at Melanocortin receptor 4 [2] is 6.62. In addition, the Activity at Melanocortin receptor 4 [3] came to 95%. The like results for `CC(C)CN(CC(C)C)CC(C1CCCCC1)N1CCN(C(=O)[C@@H]2CN(C(C)(C)C)C[C@H]2c2ccc(F)cc2F)CC1` (some centres not stated) were, in that order, 5.72, 5.17 and 10%.

`CCCN(CCC)CC(C1CCCCC1)N1CCN(C(=O)[C@@H]2CN(C(C)(C)C)C[C@H]2c2ccc(F)cc2F)CC1` (some centres not stated) had a pIC50 at Melanocortin receptor 4 [1] of 6.70. In addition, on Melanocortin receptor 4 [2], the pEC50 is 6.15. Besides, the Activity on Melanocortin receptor 4 [3] came out at 97%. As for `CC(=O)N(CC(C1CCCCC1)N1CCN(C(=O)[C@@H]2CN(C(C)(C)C)C[C@H]2c2ccc(F)cc2F)CC1)C(C)C` (single isomer, unassigned; diastereomer 1) [listing 1 of 2 here], on Melanocortin receptor 4 [1], the pIC50 is 7.54. For the same molecule, the negative logarithm of the EC50 (pEC50) at Melanocortin receptor 4 [2] was 7.30. With `CC(C)N(CC(C1CCCCC1)N1CCN(C(=O)[C@@H]2CN(C(C)(C)C)C[C@H]2c2ccc(F)cc2F)CC1)S(C)(=O)=O` (single isomer, unassigned; diastereomer 1) [listing 1 of 2 here], at Melanocortin receptor 4 [1], the pIC50 is 7.82. Also, the negative logarithm of the EC50 (pEC50) on Melanocortin receptor 4 [2] is 7.60. In the same order, the values of `CC(=O)N(CC(CC(C)C)N1CCN(C(=O)[C@@H]2CN(C(C)(C)C)C[C@H]2c2ccc(F)cc2F)CC1)C(C)C` (single isomer, unassigned; diastereomer 1) [listing 1 of 2 here] are 7.31 and 7.54. Consider `CC(C)CC(CN(C(C)C)S(C)(=O)=O)N1CCN(C(=O)[C@@H]2CN(C(C)(C)C)C[C@H]2c2ccc(F)cc2F)CC1` (single isomer, unassigned; diastereomer 1) [listing 1 of 2 here], for which, at Melanocortin receptor 4 [1], the negative-log IC50 (pIC50) is 7.06. Moreover, at Melanocortin receptor 4 [2], the negative logarithm of the EC50 (pEC50) is 7.33. Regarding `CC(=O)N(CC(N1CCN(C(=O)[C@@H]2CN(C(C)(C)C)C[C@H]2c2ccc(F)cc2F)CC1)C(C)(C)C)C(C)C` (single isomer, unassigned; diastereomer 1) [listing 1 of 2 here], on Melanocortin receptor 4 [1] (cho), the negative logarithm of the IC50 (pIC50) is 6.82. Moreover, the pEC50 on Melanocortin receptor 4 [2] (cho) was 6.74. Consider `CC(=O)N(CC(C1CCCCC1)N1CCN(C(=O)[C@@H]2CN(C(C)(C)C)C[C@H]2c2ccc(F)cc2F)CC1)C(C)C` (single isomer, unassigned; diastereomer 1) [listing 2 of 2 here], for which the Activity at Melanocortin receptor 4 [3] turned out to be 134%.

As for `CC(=O)N(CC(CC(C)C)N1CCN(C(=O)[C@@H]2CN(C(C)(C)C)C[C@H]2c2ccc(F)cc2F)CC1)C(C)C` (single isomer, unassigned; diastereomer 1) [listing 2 of 2 here], at Melanocortin receptor 4 [3], the Activity came out at 101%. Regarding `CC(=O)N(CC(N1CCN(C(=O)[C@@H]2CN(C(C)(C)C)C[C@H]2c2ccc(F)cc2F)CC1)C(C)(C)C)C(C)C` (single isomer, unassigned; diastereomer 1) [listing 2 of 2 here], the Activity at Melanocortin receptor 4 [3] was found to be 89%. Same read-out and setting: then `CC(C)CC(CN(C(C)C)S(C)(=O)=O)N1CCN(C(=O)[C@@H]2CN(C(C)(C)C)C[C@H]2c2ccc(F)cc2F)CC1` (single isomer, unassigned; diastereomer 1) [listing 2 of 2 here], with 117%. Regarding `CC(C)N(CC(C1CCCCC1)N1CCN(C(=O)[C@@H]2CN(C(C)(C)C)C[C@H]2c2ccc(F)cc2F)CC1)C(=O)c1cccnn1` (single isomer, unassigned; diastereomer 1), the Activity at Melanocortin receptor 3 is 108%; at Melanocortin receptor 5 it was 68%; in assay [4] it was 58%; at Melanocortin receptor 4 [3] it was 102%. In the case of `CC(C)N(CC(C1CCCCC1)N1CCN(C(=O)[C@@H]2CN(C(C)(C)C)C[C@H]2c2ccc(F)cc2F)CC1)C(=O)c1ncccn1` (single isomer, unassigned; diastereomer 1), on Melanocortin receptor 4 [3], the Activity is 98%.

Consider `CC(C)N(CC(C1CCCCC1)N1CCN(C(=O)[C@@H]2CN(C(C)(C)C)C[C@H]2c2ccc(F)cc2F)CC1)S(C)(=O)=O` (single isomer, unassigned; diastereomer 1) [listing 2 of 2 here], for which, on Melanocortin receptor 4 [3], the Activity turned out to be 114%. With `CC(C)N(CC(C1CCCCC1)N1CCN(C(=O)[C@@H]2CN(C(C)(C)C)C[C@H]2c2ccc(F)cc2F)CC1)C(=O)c1cccnn1` (single isomer, unassigned; diastereomer 2) [listing 1 of 2 here], the pIC50 on Melanocortin receptor 4 [1] was 7.19. The pEC50 on Melanocortin receptor 4 [2] was 8.04.

At Melanocortin receptor 4 [1], `CC(C)N(CC(C1CCCCC1)N1CCN(C(=O)[C@@H]2CN(C(C)(C)C)C[C@H]2c2ccc(F)cc2F)CC1)C(=O)c1cnn(C(C)C)c1` (single isomer, unassigned; diastereomer 2) [listing 1 of 2 here] gave a pIC50 of 7.21. The pEC50 at Melanocortin receptor 4 [2] was 7.72.

In turn, `CC(=O)N(CC(N1CCN(C(=O)[C@@H]2CN(C(C)(C)C)C[C@H]2c2ccc(F)cc2F)CC1)C(C)(C)C)C(C)C` (single isomer, unassigned; diastereomer 2) [listing 1 of 2 here] had a pIC50 at Melanocortin receptor 4 [1] of 6.82. Also, at Melanocortin receptor 4 [2], the negative logarithm of the EC50 (pEC50) is 6.74. With `CC(=O)N(CC(N1CCN(C(=O)[C@@H]2CN(C(C)(C)C)C[C@H]2c2ccc(F)cc2F)CC1)C(C)(C)C)C(C)C` (single isomer, unassigned; diastereomer 2) [listing 2 of 2 here], the Activity on Melanocortin receptor 4 [3] was 94%. Still for that read-out and setting: then `CC(C)N(CC(C1CCCCC1)N1CCN(C(=O)[C@@H]2CN(C(C)(C)C)C[C@H]2c2ccc(F)cc2F)CC1)C(=O)c1cccnn1` (single isomer, unassigned; diastereomer 2) [listing 2 of 2 here], with 99%; and `CC(C)N(CC(C1CCCCC1)N1CCN(C(=O)[C@@H]2CN(C(C)(C)C)C[C@H]2c2ccc(F)cc2F)CC1)C(=O)c1cnn(C(C)C)c1` (single isomer, unassigned; diastereomer 2) [listing 2 of 2 here], with 81%.

In the case of `CC(C)N(CC(C1CCCCC1)N1CCN(C(=O)[C@@H]2CN(C(C)(C)C)C[C@H]2c2ccc(F)cc2F)CC1)C(=O)c1ncccn1` (stereo in doubt; 22B) [listing 1 of 2 here], the negative-log IC50 (pIC50) on Melanocortin receptor 4 [1] was 6.89. Besides, the pEC50 on Melanocortin receptor 4 [2] was 7.82. For the molecule `CC(C)N(CC(C1CCCCC1)N1CCN(C(=O)[C@@H]2CN(C(C)(C)C)C[C@H]2c2ccc(F)cc2F)CC1)C(=O)c1ncccn1` (stereo in doubt; 22B) [listing 2 of 2 here], the Activity at Melanocortin receptor 4 [3] is 88%. `CC(C)N(CC(N1CCN(C(=O)[C@@H]2CN(C(C)(C)C)C[C@H]2c2ccc(F)cc2F)CC1)C(C)(C)C)S(C)(=O)=O` (stereo in doubt; 27A) [listing 1 of 2 here]: at Melanocortin receptor 4 [1], the negative-log IC50 (pIC50) was 7.28. In addition, the pEC50 at Melanocortin receptor 4 [2] is 7.72. Consider `CC(C)N(CC(N1CCN(C(=O)[C@@H]2CN(C(C)(C)C)C[C@H]2c2ccc(F)cc2F)CC1)C(C)(C)C)S(C)(=O)=O` (stereo in doubt; 27A) [listing 2 of 2 here], for which the Activity on Melanocortin receptor 4 [3] worked out at 88%. As to `CC(C)N(CC(N1CCN(C(=O)[C@@H]2CN(C(C)(C)C)C[C@H]2c2ccc(F)cc2F)CC1)C(C)(C)C)S(C)(=O)=O` (stereo in doubt; 27B) [listing 1 of 2 here], the negative-log IC50 (pIC50) at Melanocortin receptor 4 [1] was 7.34. Besides, the pEC50 at Melanocortin receptor 4 [2] is 7.36. On to `CC(C)N(CC(N1CCN(C(=O)[C@@H]2CN(C(C)(C)C)C[C@H]2c2ccc(F)cc2F)CC1)C(C)(C)C)S(C)(=O)=O` (stereo in doubt; 27B) [listing 2 of 2 here], for which, at Melanocortin receptor 4 [3], the Activity came out at 102%.
